Laboratory results published in patent US20070142450A1, “Novel urea derivatives and their medical use” (priority 2004, published 2007).

How the values were obtained:
male Wistar rats = experiment: Morris Water Maze (MWM), scopolamine-induced impairment of spatial learning and memory; format: in vivo, rat
From the text: The Morris Water Maze (MWM) is the favored test in behavioral neuroscience for the study of hippocampal-dependent learning and memory (see Morris R G: Developments of a Water Maze procedure for studying spatial learning in the rat; J. Neurosci. Meth. 1984 11 47-60). It is a standardized behavioral task to test spatial navigation in rodents, and is a highly sensitive test to assess cognition in animals.
In the MWM performance animals have to remember the position of a submerged platform (10×10 cm) within a circular (Ø 150 cm) water tank using visual spatial cues. A number of eight (n=8) male Wistar rats were used for each group in each experiment. In four trials per day, for four consecutive acquisition days, they are released from different starting points close to the wall of the tank to find their way to the submerged platform. Spatial learning abilty is evaluated by latency to locate the platform.
This learning impairment was reversed by 30 mg/kg of Compound 1 of the invention (i.p. administration 30 minutes prior to test start).

Structure (SMILES)	melting point	other results
COc1ccc(Cl)cc1NC(=O)Nc1ccc([N+](=O)[O-])cc1O	225 to 226 °C	–
O=C(Nc1cccc(C(F)(F)F)c1)Nc1c(O)cccc1[N+](=O)[O-]	174 to 175 °C	–
Nc1cc(Cl)c(Cl)cc1NC(=O)Nc1cc(C(F)(F)F)ccc1Cl	207 to 209 °C	–
O=C(Nc1cccc(C(F)(F)F)c1)Nc1ccc(O)c(Cl)c1	194 to 196 °C	–
Cc1cc(O)ccc1NC(=O)Nc1cccc(C(F)(F)F)c1	185 to 186 °C	–
O=C(Nc1cccc(C(F)(F)F)c1)Nc1cc(Cl)c(O)c(Cl)c1	215 to 218 °C	–
O=C(Nc1cc(Cl)c(O)c(Cl)c1)Nc1cc(C(F)(F)F)ccc1Cl	213 to 221 °C	–
O=C(Nc1cccc(-c2ccccc2)c1)Nc1cc(Cl)c(O)c(Cl)c1	252 to 253 °C	–
O=C(Nc1ccc(-c2ccccc2)cc1)Nc1cc(Cl)c(O)c(Cl)c1	249 to 251 °C	–
O=C(Nc1ccc(-c2ccccc2)cc1)Nc1cc(Cl)ccc1O	191 to 192 °C	–
Cc1cc(O)cc(NC(=O)Nc2cc(C(F)(F)F)ccc2Cl)c1	190 to 192 °C	–
Cc1cc(O)cc(NC(=O)Nc2cccc(C(F)(F)F)c2)c1	188 to 190 °C	–
Cc1cc(O)ccc1NC(=O)Nc1cc(C(F)(F)F)ccc1Cl	210 to 211 °C	–
COc1ccc(Cl)cc1NC(=O)Nc1cc(C(F)(F)F)ccc1Cl	172 to 176 °C	–
O=C(Nc1cc(Cl)ccc1O)Nc1cc(C(F)(F)F)ccc1Cl [Compound 1, N-(3-Chloro-6-hydroxy-phenyl)-N′-(2-chloro-5-trifluoromethyl-phenyl)urea]	–	Reversal of scopolamine-induced learning impairment (latency to locate the platform) (male Wistar rats; 30 mg/kg i.p. 30 minutes prior to test start, with 0.1 mg/kg Scopolamine s.c., four trials per day, four days): reversed
CN1[C@@H]2C[C@@H](OC(=O)[C@H](CO)c3ccccc3)C[C@H]1[C@@H]1O[C@@H]12 [Scopolamine, reference compound]	–	Effect on spatial reference memory as measured in MWM (latency to locate the platform) (male Wistar rats; s.c. administration 30 minutes prior to test start): significantly impairs
